Values quoted from earlier work in patent publication US8791078B2, “Cell protection in dialysis patients by administration of a creatine compound” (Crearene Ltd., priority 2009, dated 2014).

Key:
[1] = system: muscle cramps associated with haemodialysis; parameters: dose or concentration left out as unconfirmed; details: oral, before each dialysis session for 4 weeks
[2] = system: serum levels of homocysteine; details: creatine supplementation
[3] = target: T1, creatine Transporter Protein (CrT) (Homo sapiens, UniProt P48029); details: CrT in the plasma membrane
T1 sequence (P48029 1-635): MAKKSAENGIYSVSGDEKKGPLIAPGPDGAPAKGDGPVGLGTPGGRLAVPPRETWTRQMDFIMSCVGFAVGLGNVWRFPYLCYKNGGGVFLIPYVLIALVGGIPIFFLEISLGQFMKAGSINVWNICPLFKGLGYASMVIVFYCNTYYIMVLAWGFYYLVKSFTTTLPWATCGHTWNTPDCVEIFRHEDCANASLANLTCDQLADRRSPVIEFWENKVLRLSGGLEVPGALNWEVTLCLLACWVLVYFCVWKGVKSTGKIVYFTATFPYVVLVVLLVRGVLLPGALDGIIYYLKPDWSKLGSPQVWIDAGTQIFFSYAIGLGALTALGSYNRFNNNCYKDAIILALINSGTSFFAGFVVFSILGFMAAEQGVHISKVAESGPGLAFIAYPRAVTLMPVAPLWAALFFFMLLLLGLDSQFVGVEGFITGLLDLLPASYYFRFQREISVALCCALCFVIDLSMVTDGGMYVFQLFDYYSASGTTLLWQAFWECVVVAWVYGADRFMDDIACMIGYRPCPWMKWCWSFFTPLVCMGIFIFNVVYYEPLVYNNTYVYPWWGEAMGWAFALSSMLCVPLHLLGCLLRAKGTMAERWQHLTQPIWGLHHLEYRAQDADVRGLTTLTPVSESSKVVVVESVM

[4] = system: total plasma homocysteine; details: chronic haemodialysis patients, oral creatine (2 giday)

In the case of `CN(CC(=O)O)C(=N)N.O` [creatine monohydrate], the “effect on muscle cramps associated with haemodialysis” value [1] is given as “alleviates muscle cramps associated with haemodialysis”.
In the case of `CN(CC(=O)O)C(=N)N` [creatine], the “effect on serum levels of homocysteine” value [2] is given as “reduce serum levels of homocysteine”, the Km [3] is given as 25 to 30 µM and the “effect on total plasma homocysteine” value [4] is given as “does not decrease total plasma homocysteine”.
